The experiment addresses T1, human PAD4 (Homo sapiens, UniProt Q9UM07).
T1 construct: human PAD4 (NM_012387), A2-P663, was PCR amplified; His-SUMO (N, cleaved yes); made in house; host or cells: E. coli BL21(DE3)
Put plainly: In vitro PAD4 BAEE biochemical assay. Particulars: BAEE substrate 3 mM, 5 nM PAD4, 2 mM calcium chloride; geometric mean of multiple experiments. Put shortly: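 Recombinant PAD4 (5 nM final) with 2 mM CaCl2 was preincubated with compound for 30 min at 25 °C in MOPS pH 7.6 buffer with DTT, then reacted with 3 mM BAEE for 2 h at 25 °C. Released ammonia was detected fluorimetrically with o-phthalaldehyde/DTT; IC50 from four-parameter fit, geometric mean of experiments.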
T1 sequence (Q9UM07 2-663): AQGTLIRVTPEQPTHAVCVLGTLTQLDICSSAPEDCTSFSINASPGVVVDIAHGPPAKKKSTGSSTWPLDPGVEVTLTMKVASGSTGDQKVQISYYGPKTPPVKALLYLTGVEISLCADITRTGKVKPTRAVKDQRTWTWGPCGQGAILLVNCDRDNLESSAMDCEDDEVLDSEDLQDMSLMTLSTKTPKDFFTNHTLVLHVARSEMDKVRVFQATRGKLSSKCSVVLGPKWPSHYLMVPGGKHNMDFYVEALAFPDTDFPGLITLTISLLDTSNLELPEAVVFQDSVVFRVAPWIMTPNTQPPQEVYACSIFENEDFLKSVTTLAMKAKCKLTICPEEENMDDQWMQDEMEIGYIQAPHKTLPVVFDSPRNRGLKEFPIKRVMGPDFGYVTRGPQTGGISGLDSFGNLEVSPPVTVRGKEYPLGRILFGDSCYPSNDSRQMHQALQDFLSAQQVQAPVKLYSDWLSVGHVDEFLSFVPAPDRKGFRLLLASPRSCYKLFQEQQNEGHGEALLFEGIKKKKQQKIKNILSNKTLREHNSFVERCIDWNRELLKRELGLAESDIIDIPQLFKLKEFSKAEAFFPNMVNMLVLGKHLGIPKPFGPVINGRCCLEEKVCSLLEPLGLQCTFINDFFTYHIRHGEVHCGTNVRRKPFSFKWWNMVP
Take `COc1cc(C(=O)N[C@H]2CNCC[C@@H]2F)cc2nc(-c3cc4ccc5nc4n3CCCCCc3ccccc3C(=O)N[C@@H]5C)n(C)c12` [Example 31, ~{N}-[(3~{S},4~{S})-4-fluoro-3-piperidyl]-7-methoxy-1-methyl-2-[(2~{R})-2-methyl-4-oxo-3,16,22-triazatetracyclo[14.5.2.0^{5,10}.0^{19,23}]tricosa-1(22),5,7,9,17,19(23),20-heptaen-17-yl]benzimidazole-5-carboxamide]: the IC50 was determined as 81 nM.
As for `COc1cc(C(=O)N2[C@H]3CC[C@@H]2[C@H](N)C3)cc2nc(-c3cc4ccc5nc4n3CCCCCn3nccc3C(=O)N[C@@H]5C)c(C)n12` [Example 32, (2~{R})-16-[7-[(1~{R},2~{R},4~{S})-2-amino-7-azabicyclo[2.2.1]heptane-7-carbonyl]-5-methoxy-3-methyl-imidazo[1,2-a]pyridin-2-yl]-2-methyl-3,8,9,15,21-pentazatetracyclo[13.5.2.0^{5,9}.0^{18,22}] docosa-1(21),5,7,16,18(22),19-hexaen-4-one], the figure is 12 nM.
With `COc1cc(C(=O)N2[C@H]3CC[C@@H]2[C@H](N)C3)cc2nc(-c3cc4ccc5nc4n3CCCCCn3ccc(n3)C(=O)N[C@@H]5C)c(C)n12` [Example 33, (2~{R})-15-[7-[(1~{R},2~{R),4~{S})-2-amino-7-azabicyclo[2.2.1]heptane-7-carbonyl]-5-methoxy-3-methyl-imidazo[1,2-a]pyridin-2-yl]-2-methyl-3,8,14,20,22-pentazatetracyclo[12.5.2.1^{5,8}.0^{17,21}] docosa-1(20),5(22),6,15,17(21),18-hexaen-4-one] the figure was 248 nM; with `COc1cc(C(=O)N2[C@H]3CC[C@@H]2[C@H](N)C3)cc2nc(-c3cc4ccc5nc4n3CCCCn3nccc3C(=O)N[C@@H]5C)c(C)n12` [Example 34, (2~{R})-15-[7-[(1~{R},2~{R},4~{S})-2-amino-7-azabicyclo[2.2.1]heptane-7-carbonyl]-5-methoxy-3-methyl-imidazo[1,2-a]pyridin-2-yl]-2-methyl-3,8,9,14,20-pentazatetracyclo[12.5.2.0^{5,9}.0^{17,21}] henicosa-1(20),5,7,15,17(21),18-hexaen-4-one], 54 nM.
With `COc1cc(C(=O)N2[C@H]3CC[C@@H]2[C@H](N)C3)cc2nc(-c3cc4ccc5nc4n3CCCCCCn3nccc3C(=O)N[C@@H]5C)c(C)n12` [Example 35, (2~{R})-17-[7-[(1~{R},2~{R},4~{S})-2-amino-7-azabicyclo[2.2.1]heptane-7-carbonyl]-5-methoxy-3-methyl-imidazo[1,2-a]pyridin-2-yl]-2-methyl-3,8,9,16,22-pentazatetracyclo[14.5.2.0^{5,9).0^{19,23}] tricosa-1(22),5,7,17,19(23),20-hexaen-4-one] the figure was 34 nM; with `COc1cc(C(=O)N2[C@H]3CC[C@@H]2[C@H](N)C3)cc2nc(-c3cc4ccc5nc4n3CCCCCCn3ccc(n3)C(=O)N[C@@H]5C)c(C)n12` [Example 36, (2~{R})-16-[7-[(1~{R},2~{R},4~{S})-2-amino-7-azabicyclo[2.2.1]heptane-7-carbonyl]-5-methoxy-3-methyl-imidazo[1,2-a]pyridin-2-yl]-2-methyl-3,8,15,21,23-pentazatetracyclo[13.5.2.1^{5,8}.0^{18,22}] tricosa-1(21),5(23),6,16,18(22),19-hexaen-4-one], 372 nM.
For the molecule `COc1cc(C(=O)N2[C@H]3CC[C@@H]2[C@H](N)C3)cc2nc(-c3cc4ccc5nc4n3CCCCc3cccc(n3)C(=O)N[C@@H]5C)n(C)c12` [Example 37, (2~{R})-15-[5-[(1~{R},2~{R},4~{S})-2-amino-7-azabicyclo[2.2.1]heptane-7-carbonyl]-7-methoxy-1-methyl-benzimidazol-2-yl]-2-methyl-3,14,20,22-tetrazatetracyclo[12.5.2.1^{5,9}.0^{17,21}] docosa-1(20),5,7,9(22),15,17(21),18-heptaen-4-one], the half-maximal inhibitory concentration (IC50) came out at 553 nM.
In the case of `COc1cc(C(=O)N2[C@H]3CC[C@@H]2[C@H](N)C3)cc2nc(-c3cc4ccc5nc4n3CCCCc3cccc(c3F)C(=O)N[C@@H]5C)n(C)c12` [Example 38, (2~{R})-15-[5-[(1~{R},2~{R},4~{S})-2-amino-7-azabicyclo[2.2.1]heptane-7-carbonyl]-7-methoxy-1-methyl-benzimidazol-2-yl]-22-fluoro-2-methyl-3,14,20-triazatetracyclo[12.5.2.1^{5,9}.0^{17,21}] docosa-1(20),5,7,9(22),15,17(21),18-heptaen-4-one], the IC50 came out at 1200 nM.
As for `COc1cc(C(=O)N2[C@H]3CC[C@@H]2[C@H](N)C3)cc2nc(-c3cc4ccc5nc4n3CCCCCc3ccccc3C(=O)N[C@@H]5C)n(C)c12` [Example 39, (2~{R})-17-[5-[(1~{R},2~{R),4~{S})-2-amino-7-azabicyclo[2.2.1]heptane-7-carbonyl]-7-methoxy-1-methyl-benzimidazol-2-yl]-2-methyl-3,16,22-triazatetracyclo[14.5.2.0^{5,10}.0^{19,23}] tricosa-1(22),5,7,9,17,19(23),20-heptaen-4-one], the figure is 23 nM; as for `COc1cc(C(=O)N2[C@H]3CC[C@@H]2[C@H](N)C3)cc2nc(-c3cc4ccc5nc4n3CCCCCCc3ccccc3C(=O)N[C@@H]5C)n(C)c12` [Example 40, (2~{R})-18-[5-[(1~{R},2~{R},4~{S})-2-amino-7-azabicyclo[2.2.1]heptane-7-carbonyl]-7-methoxy-1-methyl-benzimidazol-2-yl]-2-methyl-3,17,23-triazatetracyclo[15.5.2.0^{5,10).0^{20,24}] tetracosa-1(23),5,7,9,18,20(24),21-heptaen-4-one], 24 nM.
As for `COc1cc(C(=O)N2[C@H]3CC[C@@H]2[C@H](N)C3)cc2nc(-c3cc4ccc5nc4n3CCCCOc3ccccc3C(=O)N[C@@H]5C)n(C)c12` [Example 41, (2~{R})-17-[5-[(1~{R),2~{R},4~{S})-2-amino-7-azabicyclo[2.2.1]heptane-7-carbonyl]-7-methoxy-1-methyl-benzimidazol-2-yl]-2-methyl-11-oxa-3,16,22-triazatetracyclo[14.5.2.0^{5,10}.0^{19,23}] tricosa-1(22),5,7,9,17,19(23),20-heptaen-4-one], the figure is 268 nM.
As for `COc1cc(C(=O)N2C[C@H]3CC[C@@H]2[C@@H]3N)cc2nc(-c3cc4ccc5nc4n3CCCCCc3ccccc3C(=O)N[C@@H]5C)n(C)c12` [Example 42, (2~{R})-17-[5-[(1~{R},4~{R},7~{R})-7-amino-2-azabicyclo[2.2.1]heptane-2-carbonyl]-7-methoxy-1-methyl-benzimidazol-2-yl]-2-methyl-3,16,22-triazatetracyclo[14.5.2.0^{5,10}.0^{19,23}] tricosa-1(22),5,7,9,17,19(23),20-heptaen-4-one], the figure is 108 nM.
As for `COc1cc(C(=O)N2CC[C@@H](OC)[C@@H](N)C2)cc2nc(-c3cc4ccc5nc4n3CCCCCc3ccccc3C(=O)N[C@@H]5C)n(C)c12` [Example 43, (2~{R})-17-[5-[(3~{S},4~{R})-3-amino-4-methoxy-piperidine-1-carbonyl]-7-methoxy-1-methyl-benzimidazol-2-yl]-2-methyl-3,16,22-triazatetracyclo[14.5.2.0^{5,10}.0^{19,23}] tricosa-1(22),5,7,9,17,19(23),20-heptaen-4-one], the IC50 is 118 nM.
With `COc1cc(C(=O)N2C[C@H](N)CCN2C)cc2nc(-c3cc4ccc5nc4n3CCCCCc3ccccc3C(=O)N[C@@H]5C)n(C)c12` [Example 44, (2~{R})-17-[5-[(5~{R})-5-amino-2-methyl-hexahydropyridazine-1-carbonyl]-7-methoxy-1-methyl-benzimidazol-2-yl]-2-methyl-3,16,22-triazatetracyclo[14.5.2.0^{5,10}.0^{19,23}] tricosa-1(22),5,7,9,17,19(23),20-heptaen-4-one] the figure was 64 nM.
For `COc1cc(C(=O)N2CCC[C@@H](N)C2)cc2nc(-c3cc4ccc5nc4n3CCCCCCC(=O)Nc3ccncc3-5)n(C)c12` [Example 45, 17-[5-[(3~{R})-3-aminopiperidine-1-carbonyl]-7-methoxy-1-methyl-benzimidazol-2-yl]-4,8,16,22-tetrazatetracyclo[14.5.2.0^{2,7}.0^{19,23}] tricosa-1(22),2,4,6,17,19(23),20-heptaen-9-one], the IC50 is 4960 nM.
As for `COc1cc(C(=O)N2CCC[C@@H](N)C2)cc2nc(-c3cc4ccc5nc4n3CCCCCCNC(=O)c3ncccc3-5)n(C)c12` [Example 46, 17-[5-[(3~{R})-3-aminopiperidine-1-carbonyl]-7-methoxy-1-methyl-benzimidazol-2-yl]-6,9,16,22-tetrazatetracyclo[14.5.2.0^{2,7}.0^{19,23}] tricosa-1(22),2,4,6,17,19(23),20-heptaen-8-one], the figure is 277 nM; as for `COc1cc(C(=O)N2CCC[C@@H](N)C2)cc2nc(-c3cc4ccc5cc4n3CCCCCCC(=O)Nc3ccccc3-5)n(C)c12` [Example 47, 17-[5-[(3~{R})-3-aminopiperidine-1-carbonyl]-7-methoxy-1-methyl-benzimidazol-2-yl]-8,16-diazatetracyclo[14.5.2.0^{2,7}.0^{19,23}] tricosa-1(22),2,4,6,17,19(23),20-heptaen-9-one], 458 nM.
For the molecule `COc1cc(C(=O)N2[C@H]3CC[C@@H]2[C@H](N)C3)cc2nc(-c3cc4ccc5nc4n3CCCCCCNC(=O)c3ccccc3-5)n(C)c12` [Example 48, 17-[5-[(1~{R),2~{R},4~{S})-2-amino-7-azabicyclo[2.2.1]heptane-7-carbonyl]-7-methoxy-1-methyl-benzimidazol-2-yl]-9,16,22-triazatetracyclo[14.5.2.0^{2,7}.0^{19,23}] tricosa-1(22),2,4,6,17,19(23),20-heptaen-8-one], the IC50 was 75 nM.

By IC50 is commonly meant the concentration that inhibits the measured activity by half.

These data come from patent US11976083B2, “Inhibitors of peptidylarginine deiminases” (Gilead Sciences, Inc., priority 2020, dated 2024).
